Test system: 857933-349-R-J2-PDC complex spheroid viability
Assay: Anticancer human tumor 857933-349-R-J2-PDC patient-derived colon adenocarcinoma cell line growth inhibition [POLQ]
Settings: for IC50: curve of first compound; for viability, T/C: stronger effect = lower value
Procedure, shortened: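 PDC + HUVEC + MSC complex spheroids; POLQ inhibitors ± partner drugs; top conc. at/near clinical Cmax, else 10 microM (SN-38 1 microM), half-log dilutions; 37 degrees C, 5% CO2.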

[1] = second compound 0.0316 µM, first compound 0.00316 µM
[2] = second compound 0.0316 µM, first compound 0.01 µM
[3] = second compound 0.0316 µM, first compound 0.0316 µM
[4] = second compound 0.0316 µM, first compound 0.1 µM
[5] = second compound 0.0316 µM, first compound 0.316 µM
[6] = second compound 0.0316 µM, first compound 1 µM
[7] = second compound 0.1 µM, first compound 0.00316 µM
[8] = second compound 0.1 µM, first compound 0.01 µM
[9] = second compound 0.1 µM, first compound 0.0316 µM
[10] = second compound 0.1 µM, first compound 0.1 µM
[11] = second compound 0.1 µM, first compound 0.316 µM
[12] = second compound 0.1 µM, first compound 1 µM
[13] = second compound 0.316 µM, first compound 0.00316 µM
[14] = second compound 0.316 µM, first compound 0.01 µM
[15] = second compound 0.316 µM, first compound 0.0316 µM
[16] = second compound 0.316 µM, first compound 0.1 µM
[17] = second compound 0.316 µM, first compound 0.316 µM
[18] = second compound 0.316 µM, first compound 1 µM
[19] = second compound 1 µM, first compound 0.00316 µM
[20] = second compound 1 µM, first compound 0.01 µM
[21] = second compound 1 µM, first compound 0.0316 µM
[22] = second compound 1 µM, first compound 0.1 µM
[23] = second compound 1 µM, first compound 0.316 µM
[24] = second compound 1 µM, first compound 1 µM
[25] = second compound 3.16 µM, first compound 0.00316 µM
[26] = second compound 3.16 µM, first compound 0.01 µM
[27] = second compound 3.16 µM, first compound 0.0316 µM
[28] = second compound 3.16 µM, first compound 0.1 µM
[29] = second compound 3.16 µM, first compound 0.316 µM
[30] = second compound 3.16 µM, first compound 1 µM
[31] = second compound 10 µM, first compound 0.00316 µM
[32] = second compound 10 µM, first compound 0.01 µM
[33] = second compound 10 µM, first compound 0.0316 µM
[34] = second compound 10 µM, first compound 0.1 µM
[35] = second compound 10 µM, first compound 0.316 µM
[36] = second compound 10 µM, first compound 1 µM
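Note: spheroids exposed to compounds for seven days before readout.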

## C=CCn1c(=O)c2cnc(Nc3ccc(N4CCN(C)CC4)cc3)nc2n1-c1cccc(C(C)(C)O)n1 + COC1C(OC(N)=O)C(O)C(Oc2ccc3c(O)c(NC(=O)c4ccc(O)c(CC=C(C)C)c4)c(=O)oc3c2C)OC1(C)C
Second compound 0.0316 µM
  IC50: > 1 µM
Second compound 0.1 µM
  IC50: > 1 µM
Second compound 0.316 µM
  IC50: > 1 µM
Second compound 1 µM
  IC50: > 1 µM
Second compound 3.16 µM
  IC50: > 1 µM
Second compound 10 µM
  IC50: > 1 µM
[1]
  viability, T/C: 89.8%
[2]
  viability, T/C: 96.5%
[3]
  viability, T/C: 76.7%
[4]
  viability, T/C: 81.7%
[5]
  viability, T/C: 84.6%
[6]
  viability, T/C: 80.9%
[7]
  viability, T/C: 97.9%
[8]
  viability, T/C: 106%
[9]
  viability, T/C: 112%
[10]
  viability, T/C: 89.4%
[11]
  viability, T/C: 74.3%
[12]
  viability, T/C: 64.7%
[13]
  viability, T/C: 92.4%
[14]
  viability, T/C: 95.3%
[15]
  viability, T/C: 91%
[16]
  viability, T/C: 78.8%
[17]
  viability, T/C: 79.2%
[18]
  viability, T/C: 64.1%
[19]
  viability, T/C: 102%
[20]
  viability, T/C: 80.4%
[21]
  viability, T/C: 88.7%
[22]
  viability, T/C: 87.3%
[23]
  viability, T/C: 95.8%
[24]
  viability, T/C: 61.8%
[25]
  viability, T/C: 92%
[26]
  viability, T/C: 86.6%
[27]
  viability, T/C: 74.6%
[28]
  viability, T/C: 74.2%
[29]
  viability, T/C: 91.1%
[30]
  viability, T/C: 77.5%
[31]
  viability, T/C: 83.8%
[32]
  viability, T/C: 86.8%
[33]
  viability, T/C: 91.8%
[34]
  viability, T/C: 72.5%
[35]
  viability, T/C: 83.9%
[36]
  viability, T/C: 67.5%

## CC[C@@]1(O)C(=O)OCc2c1cc1n(c2=O)Cc2cc3c(CN(C)C)c(O)ccc3nc2-1 + COC1C(OC(N)=O)C(O)C(Oc2ccc3c(O)c(NC(=O)c4ccc(O)c(CC=C(C)C)c4)c(=O)oc3c2C)OC1(C)C
Second compound 0.0316 µM
  IC50: > 0.1 µM
Second compound 0.1 µM
  IC50: 0.0807 µM
Second compound 0.316 µM
  IC50: > 0.1 µM
Second compound 1 µM
  IC50: > 0.1 µM
Second compound 3.16 µM
  IC50: > 0.1 µM
Second compound 10 µM
  IC50: > 0.1 µM
Second compound 0.0316 µM, first compound 0.000316 µM
  viability, T/C: 117%
Second compound 0.0316 µM, first compound 0.001 µM
  viability, T/C: 107%
[1]
  viability, T/C: 97.6%
[2]
  viability, T/C: 84.8%
[3]
  viability, T/C: 83%
[4]
  viability, T/C: 50.7%
Second compound 0.1 µM, first compound 0.000316 µM
  viability, T/C: 105%
Second compound 0.1 µM, first compound 0.001 µM
  viability, T/C: 93.3%
[7]
  viability, T/C: 88.5%
[8]
  viability, T/C: 80%
[9]
  viability, T/C: 71%
[10]
  viability, T/C: 44.2%
Second compound 0.316 µM, first compound 0.000316 µM
  viability, T/C: 120%
Second compound 0.316 µM, first compound 0.001 µM
  viability, T/C: 86%
[13]
  viability, T/C: 94.4%
[14]
  viability, T/C: 76.1%
[15]
  viability, T/C: 88.5%
[16]
  viability, T/C: 50.4%
Second compound 1 µM, first compound 0.000316 µM
  viability, T/C: 138%
Second compound 1 µM, first compound 0.001 µM
  viability, T/C: 83.5%
[19]
  viability, T/C: 86%
[20]
  viability, T/C: 72%
[21]
  viability, T/C: 87.1%
[22]
  viability, T/C: 49.7%
Second compound 3.16 µM, first compound 0.000316 µM
  viability, T/C: 128%
Second compound 3.16 µM, first compound 0.001 µM
  viability, T/C: 102%
[25]
  viability, T/C: 79.4%
[26]
  viability, T/C: 90.7%
[27]
  viability, T/C: 65.9%
[28]
  viability, T/C: 44.3%
Second compound 10 µM, first compound 0.000316 µM
  viability, T/C: 136%
Second compound 10 µM, first compound 0.001 µM
  viability, T/C: 123%
[31]
  viability, T/C: 69.3%
[32]
  viability, T/C: 96.3%
[33]
  viability, T/C: 81.6%
[34]
  viability, T/C: 45.4%

## CCc1c2c(nc3ccc(O)cc13)-c1cc3c(c(=O)n1C2)COC(=O)[C@]3(O)CC + COC1C(OC(N)=O)C(O)C(Oc2ccc3c(O)c(NC(=O)c4ccc(O)c(CC=C(C)C)c4)c(=O)oc3c2C)OC1(C)C
Second compound 0.0316 µM
  IC50: 0.0199 µM
Second compound 0.1 µM
  IC50: 0.0194 µM
Second compound 0.316 µM
  IC50: 0.0175 µM
Second compound 1 µM
  IC50: 0.0125 µM
Second compound 3.16 µM
  IC50: 0.0158 µM
Second compound 10 µM
  IC50: 0.00942 µM
[1]
  viability, T/C: 84.5%
[2]
  viability, T/C: 71.7%
[3]
  viability, T/C: 32.1%
[4]
  viability, T/C: 25.3%
[5]
  viability, T/C: 17.5%
[6]
  viability, T/C: 5.52%
[7]
  viability, T/C: 88.3%
[8]
  viability, T/C: 76.1%
[9]
  viability, T/C: 29.7%
[10]
  viability, T/C: 20.2%
[11]
  viability, T/C: 14.1%
[12]
  viability, T/C: 4.89%
[13]
  viability, T/C: 92.3%
[14]
  viability, T/C: 71.7%
[15]
  viability, T/C: 26.3%
[16]
  viability, T/C: 17.3%
[17]
  viability, T/C: 15.2%
[18]
  viability, T/C: 5.5%
[19]
  viability, T/C: 89%
[20]
  viability, T/C: 56.6%
[21]
  viability, T/C: 22.9%
[22]
  viability, T/C: 16.7%
[23]
  viability, T/C: 16.2%
[24]
  viability, T/C: 5.68%
[25]
  viability, T/C: 84.8%
[26]
  viability, T/C: 62.8%
[27]
  viability, T/C: 29.8%
[28]
  viability, T/C: 22.4%
[29]
  viability, T/C: 12.5%
[30]
  viability, T/C: 6.77%
[31]
  viability, T/C: 80.6%
[32]
  viability, T/C: 42.7%
[33]
  viability, T/C: 35%
[34]
  viability, T/C: 16.2%
[35]
  viability, T/C: 12.2%
[36]
  viability, T/C: 4.37%

Reference: PubChem BioAssay AID1963836 (Molecular Pharmacology Branch, DTP, NCI, 2024)
